Results: patent US20250090510A1, “eIF4G1-eIF1 INHIBITORS AND USE THEREOF” (YEDA RESEARCH AND DEVELOPMENT CO. LTD., priority 2022, published 2025)
Read-outs that look alike come from different tables or passages of the source.

Tests used:
[1] = test system: HEK293T cells with eIF4G1 knockdown; experiment: Puromycin labeling after control or eIF4G1 siRNA; format: cell-based, human; settings: for IC50: Homo sapiens, HEK-293T, 48 h, 3 h treatment, read-out: IC-50, puromycin labeling
Procedure: FIGS. 3A-F: i14G1-10 and i14G1-12 inhibit mRNA translation and sensitize cell survival of eIF4G1 and eIF1 depleted cells. (3A) In-vitro translation using rabbit reticulocyte lysate which was pre-incubated with different concentrations of i14G1-10 or i14G1-12 for 10 minutes followed by the addition of capped firefly luciferase mRNA. After 90 minutes at 30° C., the luminescence signal was measured and the IC50 was calculated. The data represents mean±SEM of 6 independent repeats. (3B) HEK293T cells were treated with DMSO (vehicle control), and sub-cytotoxic concentrations of i14G1-10 (20 μM) and i14G1-12 (10 μM) for 3h. Cell lysates were then subjected to sucrose gradient sedimentation to obtain polysome profiles. (3C) HEK293T cells were treated with the indicated concentrations of i14G1-10 and i14G-12 for 3 h, followed by the addition of puromycin (10 μg/ml) for 5 minutes, after which cells were lysed and analyzed by western blot using an anti-puromycin antibody and anti-GAPDH antibody that serves as a loading control. The graph represents the mean±SEM chemiluminescence signal intensity of puromycin labeling normalized to GAPDH of 3 independent experiments. The calculated IC-50 is shown. (3D) HEK293T cells were transfected with either control or eIF4G1 siRNA in the absence or presence of eIF4G1 expression plasmid. As the eIF4G1 siRNA pool is directed against the 3′UTR, which is absent from the eIF4G1 expression plasmid, the exogenous eIF4G1 is resistant to the siRNA. 48 h after transfection, cells were treated with the indicated concentrations of i14G1-10 and i14G-12 for 3 h, followed by a 5 minutes puromycin pulse as described in 3C. The graph represents the mean±SEM chemiluminescence signal intensity of puromycin labeling normalized to GAPDH of 3 independent experiments. The calculated IC-50 is shown. (3E) The graphs represent cell viability of the indicated cell lines in the presence of increasing concentrations of i14G1-10 and i14G1, analyzed by Luminescent Cell Viability Assay. […]

[2] = test system: Plasmodium falciparum NF54 strain; experiment: Parasitemia assay in blood cultures; format: cell-based; settings: i14G1-10 20 uM, i14G1-12 10 uM; 1 hour, wash, measured 24 hours later
Procedure: FIGS. 8A-B: (8A) Bar graph of percent parasitemia in blood samples treated with i14G1-10 (20 μM) and i14G1-12 (10 μM) for 1 hour. DMSO treatment was used as a negative control. *=pVal; <0.05, ***=pVal<0.001 (8B) Photograph of a western blot and corresponding gel total protein staining of P. falciparum blood cultures treated with the inhibitors with or without the addition of puromycin. DMSO treatment and untreated cultures were used as a negative control.
From the same flask with -3-4% parasitemia, parasites were plated at 5 ml/well into six well-plates. To the trophozoite stage of development, i14G1-10, i14G1-12, or DMSO, were added and incubated at 37° C. with shaking. After one hour of incubation, from each sample, 1 ml of culture was taken. […]
The next day, the parasitemia (the number of iRBCs divided by the number of total RBCs) was measured by microscopy. The gold-standard method for identifying and quantifying malaria parasites as disclosed in Murphy et al., 2013, “Malaria diagnostics in clinical trials.” Am J Trop Med Hyg., 89(5):824-39, herein incorporated by reference in its entirety, was used. […] Infected RBCs were quantified by eye. No less than 30 fields of view were counted to find the final parasitemia percent.
Parasitaemia levels were measured 24 hours later.

OVCAR8 = experiment: CellTiter-Glo luminescent cell viability assay; format: cell-based; settings: ovarian cancer (OVCAR8), increasing concentrations, 48 h
Procedure: (§1) FIGS. 3A-F: i14G1-10 and i14G1-12 inhibit mRNA translation and sensitize cell survival of eIF4G1 and eIF1 depleted cells. (3A) In-vitro translation using rabbit reticulocyte lysate which was pre-incubated with different concentrations of i14G1-10 or i14G1-12 for 10 minutes followed by the addition of capped firefly luciferase mRNA. After 90 minutes at 30° C., the luminescence signal was measured and the IC50 was calculated. The data represents mean±SEM of 6 independent repeats. (3B) HEK293T cells were treated with DMSO (vehicle control), and sub-cytotoxic concentrations of i14G1-10 (20 μM) and i14G1-12 (10 μM) for 3h. Cell lysates were then subjected to sucrose gradient sedimentation to obtain polysome profiles. (3C) HEK293T cells were treated with the indicated concentrations of i14G1-10 and i14G-12 for 3 h, followed by the addition of puromycin (10 μg/ml) for 5 minutes, after which cells were lysed and analyzed by western blot using an anti-puromycin antibody and anti-GAPDH antibody that serves as a loading control. The graph represents the mean±SEM chemiluminescence signal intensity of puromycin labeling normalized to GAPDH of 3 independent experiments. The calculated IC-50 is shown. (3D) HEK293T cells were transfected with either control or eIF4G1 siRNA in the absence or presence of eIF4G1 expression plasmid. As the eIF4G1 siRNA pool is directed against the 3′UTR, which is absent from the eIF4G1 expression plasmid, the exogenous eIF4G1 is resistant to the siRNA. 48 h after transfection, cells were treated with the indicated concentrations of i14G1-10 and i14G-12 for 3 h, followed by a 5 minutes puromycin pulse as described in 3C. The graph represents the mean±SEM chemiluminescence signal intensity of puromycin labeling normalized to GAPDH of 3 independent experiments. The calculated IC-50 is shown. (3E) The graphs represent cell viability of the indicated cell lines in the presence of increasing concentrations of i14G1-10 and i14G1, analyzed by Luminescent Cell Viability Assay. (3F) Pie charts showing the cell cycle distribution of HEK293T cells treated with DMSO, i14G1-10 and i14G1-12.
(§2) The indicated cell lines in 96-well plates were treated with increasing concentrations of i14G1-10 and i14G1-12. After 48 h, cells were subjected to cell viability measurement using CellTiter-Glo Luminescent Assay (Cat no. G7571, Promega).
(§3) This was true in breast cancer (MCF7), lung cancer (A549), colorectal cancer (HCT116), ovarian cancer (OVCAR8) and in a bone cancer sarcoma cell line (U20S). To examine whether the growth defect is associated with cell cycle progression, control and drug treated cells were subjected to DNA staining by propidium iodide and then a flow cytometry analysis to determine their distribution in the sub-G1 (dead cells), G1, S and G2/M phases of the cell cycle.

MCF7 = experiment: CellTiter-Glo luminescent cell viability assay; format: cell-based; settings: breast cancer (MCF7), increasing concentrations, 48 h
Procedure: as §1, §2, §3

A549 = experiment: CellTiter-Glo luminescent cell viability assay; format: cell-based; settings: lung cancer (A549), increasing concentrations, 48 h
Procedure: as §1, §2, §3

HCT116 = experiment: CellTiter-Glo luminescent cell viability assay; format: cell-based; settings: colorectal cancer (HCT116), increasing concentrations, 48 h
Procedure: as §1, §2, §3

U20S = experiment: CellTiter-Glo luminescent cell viability assay; format: cell-based; settings: bone cancer sarcoma cell line (U20S), increasing concentrations, 48 h
Procedure: as §1, §2, §3

| Compound | IC50 ([1]; control siRNA) | IC50 ([1]; eIF4G1 siRNA knockdown) | reduction of parasite levels (parasitaemia) [2] | growth/survival (OVCAR8) | growth/survival (MCF7) | growth/survival (A549) | growth/survival (HCT116) | growth/survival (U20S) | inhibition of translation upon depletion of eIF4G1 ([1]; eIF4G1 siRNA vs control siRNA) |
| --- | --- | --- | --- | --- | --- | --- | --- | --- | --- |
| Cn1ccnc1S/C(=C/C=C(C#N)C#N)c1ccc(Cl)cc1 [i14G1-12] | 5.65 µM | 80 µM | 69% | inhibited the growth/survival | inhibited the growth/survival | inhibited the growth/survival | inhibited the growth/survival | inhibited the growth/survival |  |
| O=C(/C=C/Sc1ccc(C(F)(F)F)cn1)c1ccccc1 [i14G1-10] |  |  | 42% | inhibited the growth/survival | inhibited the growth/survival | inhibited the growth/survival | inhibited the growth/survival | inhibited the growth/survival | enhanced |
